{"source": "patent US20030022826A1", "about": "“Use of synthetic peptides to induce tolerance to pathogenic T and B cell epitopes of autoantigens or infectious agents” (priority 1987, published 2003)", "key": {"[1]": {"test_system": "circulating chimpanzee T, B or NK cell populations", "assay": "Absolute numbers of lymphocytes and lymphocyte subsets by flow cytometry during immunization", "assay_type": "in vivo", "details": "for B cells, % Change / T cells, % Change / Total Lymphocytes, % Change / NK cells, % Change: before vs during immunization; for average drop of T cell levels: during the immunization period; for B cells, During / NK cells, During / T cells, During / Total Lymphocytes, During: mean, months 2-14 of immunization, n = 11", "from_the_text": "Flow Cytometry: Chimpanzee PB mononuclear cells were studied by standard flow cytometry methods using a flow cytometer (751; Coulter Electronics, Inc., Hialeah, Fla.). PB lymphocytes were identified by the following markers; total T cells, CD3; T cell subunits, CD4 and CD8; B cells, CD19; and NK cells, CD56 and CD16."}, "[2]": {"assay": "DSP cross-linking and SDS-PAGE analysis of peptide complexes", "assay_type": "physicochemical", "details": "DSP cross-linking in the presence of Triton-X 100 1%", "protocol": "Lanes D,E,F, and G show the effect on peptide MW when the peptide is cross-linked with 6.25 μg (D), 12.5 μg (E), 25 μg (F) and 50 μg (G) of DSP prior to SDS-PAGE. […] At present, the nature of the two bands in this peptide under reducing conditions is unknown; these two bands can be purified by cutting the bands out of preparative gels and can be analyzed by mass spectroscopy and sequenced. Lanes A and B show the results of crosslinking F-T1-SP10IIIB(A) peptide in the presence to Triton-X 100 1% and run under reducing (A) and non-reducing conditions (B)."}, "PHA": {"test_system": "PHA", "assay": "PBMC proliferative responses to PHA in immunized chimpanzees", "assay_type": "in vivo, chimpanzee", "details": "animals 1045 and 1070; throughout the immunization period", "from_the_text": "Acpm=experimental cpm—control cpm."}}}
{"compound": "CC[C@H](C)[C@H](NC(=O)[C@@H](NC(=O)[C@@H](NC(=O)[C@H](Cc1ccccc1)NC(=O)[C@H](C)NC(=O)[C@H](CCCNC(=N)N)NC(=O)CNC(=O)[C@@H]1CCCN1C(=O)CNC(=O)[C@H](CCCNC(=N)N)NC(=O)[C@H](CCC(N)=O)NC(=O)[C@@H](NC(=O)[C@H](CCCNC(=N)N)NC(=O)[C@@H](NC(=O)[C@H](CO)NC(=O)[C@H](CCCCN)NC(=O)[C@H](CCCNC(=N)N)NC(=O)[C@@H](NC(=O)[C@H](CC(N)=O)NC(=O)[C@H](CC(N)=O)NC(=O)[C@H](CC(N)=O)NC(=O)[C@@H]1CCCN1C(=O)[C@H](CCCNC(=N)N)NC(=O)[C@@H](NC(=O)[C@H](CS)NC(=O)[C@H](C)NC(=O)[C@H](Cc1ccc(O)cc1)NC(=O)[C@H](CCSC)NC(=O)[C@H](C)NC(=O)[C@H](CCCCN)NC(=O)CNC(=O)[C@@H](NC(=O)[C@H](CCC(=O)O)NC(=O)[C@H](CCC(N)=O)NC(=O)[C@H](Cc1c[nH]c2ccccc12)NC(=O)[C@H](CCSC)NC(=O)[C@H](CC(N)=O)NC(=O)[C@@H](NC(=O)[C@@H](NC(=O)[C@H](CCC(N)=O)NC(=O)[C@H](CCCCN)NC(=O)[C@H](CC(C)C)NC(=O)[C@H](Cc1ccccc1)NC(=O)CNC(=O)[C@H](CC(C)C)NC(=O)[C@H](Cc1ccccc1)NC(=O)[C@H](CC(C)C)NC(=O)[C@H](C)NC(=O)CNC(=O)[C@@H](NC(=O)CNC(=O)[C@@H](NC(=O)[C@H](C)N)C(C)C)[C@@H](C)CC)[C@@H](C)CC)[C@@H](C)CC)C(C)C)[C@@H](C)O)[C@@H](C)O)[C@@H](C)CC)[C@@H](C)CC)C(C)C)[C@@H](C)O)C(=O)O", "note": "[F-T1-SP10IIIB(A)]", "values": [{"measurement": "lymphocyte count", "setting": "[1]; animal 1045, week 12", "value": "650 /mm^3"}, {"measurement": "B cells, % Change", "setting": "[1]; chimpanzee 1045, § p > .005", "value": "−40", "unit": "%§"}, {"measurement": "T cells, % Change", "setting": "[1]; chimpanzee 1045, † p > .001", "value": "−59", "unit": "%†"}, {"measurement": "Total Lymphocytes, % Change", "setting": "[1]; chimpanzee 1045, † p > .001", "value": "−55", "unit": "%†"}, {"measurement": "NK cells, % Change", "setting": "[1]; chimpanzee 1045, ‡ p > .02", "value": "−45", "unit": "%‡"}, {"measurement": "average drop of T cell levels", "setting": "[1]; chimpanzee 1045, p>0.001 as printed", "value": 59, "unit": "%"}, {"measurement": "B cells, During", "setting": "[1]; chimpanzee 1045", "value": 175, "unit": "Cells/mm^3"}, {"measurement": "NK cells, During", "setting": "[1]; chimpanzee 1045", "value": 61, "unit": "Cells/mm^3"}, {"measurement": "T cells, During", "setting": "[1]; chimpanzee 1045", "value": 1012, "unit": "Cells/mm^3"}, {"measurement": "Total Lymphocytes, During", "setting": "[1]; chimpanzee 1045", "value": 1426, "unit": "Cells/mm^3"}, {"measurement": "B cells, % Change", "setting": "[1]; chimpanzee 1070", "value": "−23", "unit": "%"}, {"measurement": "NK cells, % Change", "setting": "[1]; chimpanzee 1070", "value": "−36", "unit": "%"}, {"measurement": "Total Lymphocytes, % Change", "setting": "[1]; chimpanzee 1070", "value": "−30", "unit": "%"}, {"measurement": "T cells, % Change", "setting": "[1]; chimpanzee 1070, ‡ p > .02", "value": "−44", "unit": "%‡"}, {"measurement": "average drop of T cell levels", "setting": "[1]; chimpanzee 1070, p>0.02 as printed", "value": 44, "unit": "%"}, {"measurement": "B cells, During", "setting": "[1]; chimpanzee 1070", "value": 232, "unit": "Cells/mm^3"}, {"measurement": "NK cells, During", "setting": "[1]; chimpanzee 1070", "value": 306, "unit": "Cells/mm^3"}, {"measurement": "T cells, During", "setting": "[1]; chimpanzee 1070", "value": 1887, "unit": "Cells/mm^3"}, {"measurement": "Total Lymphocytes, During", "setting": "[1]; chimpanzee 1070", "value": 2768, "unit": "Cells/mm^3"}, {"measurement": "effect on circulating lymphocyte levels", "setting": "[1]; chimpanzees, F-derivatized peptide in 1045 and 1070, Th-B in 884 and 1028", "value": "induced decreases in absolute levels of circulating T cells"}, {"measurement": "stability of high MW complexes to detergent", "setting": "[2]", "value": "resistant to disruption by this detergent"}, {"measurement": "PBMC PHA responses", "setting": "PHA", "value": "normal"}]}
